“Also recorded” adds a separate entry of the source.
Tests used:
S1P receptor = conditions: administered so as to reduce the number of the osteoclasts in the bone marrow; cited from earlier work
[1] = test system: haematopoietic stem cell adhesion factors (Sdf-1a, Kit1, Angpt1, IL7, Vcam1, and Spp1) present in the osteoblasts; test: Expression of haematopoietic stem cell adhesion factors in osteoblasts treated with neuropeptide Y (real-time quantitative PCR); assay type: cell-based, C57BL/6 mice; conditions: neuropeptide Y 0, 1, and 5 nM for 3 days; compared to untreated osteoblasts (control); p<0.05, n=3
Protocol: (§1) Neuropeptide Y, a Y1 agonist, and a Y1 antagonist were purchased from Bache, and used. To perform an in vitro experiment, 1 nM NPY, and 5 nM NPY were diluted with a medium, and injected. For the in vivo experiment, a total of 15 mice (three mice in each group) were also anesthetized with a mixed solution of 100 mg/kg ketamine and 10 mg/kg xylazine, and 50 μg/kg of either neuropeptide Y, Y1 agonist, or Y1 antagonist, and 100 μl of PBS (Gibco) were injected through the tail veins of the mice.
Four- to six-week-old C57BL/6 mice were anesthetized, and sacrificed, and their tibias and femurs were incised. […]
(§2) To measure expression levels of haematopoietic stem cell adhesion factors (Sdf-1a, Kit1, Angpt1, IL7, Vcam1, and Spp1) present in the osteoblasts, a real-time quantitative polymerase chain reaction (PCR) method was used.
(§3) A total of RNAs were extracted from a cell lysate and bone marrow cells using an RNeasy Plus Mini kit (Qiagen, Korea, Ltd), and cDNA was synthesized from a total of 5 μg of RNA using a kit commercially available from Clontech (Mountain View, Calif.). Also, real-time quantitative PCR, which included denaturation at 95° C. for 10 minutes; and 40 cycles with one cycle consisting of denaturation at 95° C. for 10 seconds, annealing at 58° C. for 15 seconds, and extension at 72° C. for 20 seconds, was performed using a Corbett research RG-6000 real-time PCR machine. […]

[2] = test system: bone-marrow haematopoietic stem cell adhesion factors; test: Expression of bone-marrow haematopoietic stem cell adhesion factors in bone marrow after tail-vein injection (real-time quantitative PCR); assay type: in vivo, mice; conditions: 50 μg/kg through the tail veins; bone marrow taken after 60 minutes; p<0.05, n=3
Protocol: as §1, §2, §3

[3] = test system: bone-marrow hematopoietic progenitor cells in blood; test: Colony-forming cell (CFC) assay of blood after tail-vein injection; assay type: in vivo, mice; conditions: 50 μg/kg tail vein; after 60 minutes of injection (of 15 minutes, 60 minutes, 12 hours)
Protocol: as §1
A colony-forming cell (CFC) assay was performed to measure the number of bone-marrow hematopoietic progenitor cells in blood from mice.
First, the mice were anesthetized, and 500 μl to 700 μl of blood was drawn from the hearts of the mice, and collected in a heparin tube. Thereafter, the collected blood was added to an ammonium chloride solution (Stem Cell Technologies, Inc. 1:10), and kept in ice for 15 minutes to remove red blood cells. The blood was shaken at intervals of 2 to 3 minutes to sufficiently remove the red blood cells, and centrifuged at 1,000 rpm for 7 minutes. […] Then, colonies formed on the flask were counted. […]
To examine an effect of the activation of the neuropeptide Y receptor on the release of the bone marrow precursor cells into the blood, the colony number of the bone marrow precursor cells was also counted using a CFC assay as described in Example 1-4. […]

[4] = test system: bone-marrow haematopoietic stem cells; test: Flow cytometry analysis (FAC) of bone-marrow haematopoietic stem cells; assay type: in vivo, mice; conditions: 50 μg/kg; bone marrow after 60 minutes; compared to PBS; p<0.05, n=3
Protocol: To determine whether there is a change in the number of the bone-marrow haematopoietic stem cells present in the bone marrows from the mice, NPY and PBS were injected to normal mice. After 60 minutes, the bone marrows were collected, and analyzed by flow cytometry analysis (FAC) using five antibodies Lineage, Sca-1, c-kit, CD48, and CD150, which were markers for the bone-marrow haematopoietic stem cells.
To analyze the bone-marrow haematopoietic stem cells, the bone marrows collected from the tibias and femurs of 4- to 6-week-old C57BL/6 mice was added in an ammonium chloride solution (Stem Cell Technologies, Inc. 1:4) to remove red blood cells. Thereafter, the red blood cells were washed with a PBS (Gibco) solution supplemented with 10% fetal bovine serum (FBS, Gibco) and 1% sodium azide (Sigma-Aldrich), and then centrifuged at 300×g for 10 minutes. Hemoblasts included in the bone marrow were removed with MAC beads (MiltenyiBiotec) using a biotinylated lineage antibody (MiltenyiBiotec), and the remaining cells were reacted with Sca-1-PECY7, c-kit-APC, CD150-PE, CD48-FITC (BD Science) antibodies at 4° C. for 30 minutes, and then analyzed using an LSRII (BD Science) flow cytometer.
First, normal mice were divided into two groups (three mice in each group), and 50 μg/kg of neuropeptide Y and 100 μl of PBS (Gibco) were administered to the mice. […]

[5] = test system: bone-marrow haematopoietic stem cells and bone-marrow hematopoietic progenitor cells; test: Competitive transplantation assay; assay type: in vivo, mice
Protocol: As an experimental method capable of determining the migration of bone-marrow haematopoietic stem cells and bone-marrow hematopoietic progenitor cells present in the bone marrows of the mice into blood, a competitive transplantation assay were performed.
A mixture of bone marrow cells (2×10^6) of Ly5.2 (C57BL/6) donor mice and bone marrow cells (2×10^6) of Ly5.1 (BoyJ) mice was injected to recipient mice whose whole bodies were exposed to 10 Gy irradiations (2×5 Gy) through the tail veins thereof. On the week 8 of transplantation of the bone marrow cells, blood was drawn from the recipient mice, and analyzed by an LSR II (BD science) flow cytometer using CD45.1-PE (BD Science), and CD45.2-FITC (BD Science) antibodies. Repopulating units (RU) are indicated using a calculation method represented by the following Equation 1.
Repopulating unit (RU)=(20×CD45.2%)/(100−CD45.2%) [Equation 1]
A mixture of bone marrow cells ([…]) of Ly5.2 (C57BL/6) donor mice and bone marrow cells ([…]) of Ly5.1 (BoyJ) mice was injected to recipient mice whose whole bodies were exposed to 10 Gy irradiations (2×5 Gy) through the tail veins thereof. On the week 8 of transplantation of the bone marrow cells, blood was drawn from the recipient mice, and analyzed by an LSR II (BD science) flow cytometer using CD45.1-PE (BD Science), and CD45.2-FITC (BD Science) antibodies. […]

osteoporosis model = test: Osteoporosis model (ovariotomy) and control model, micro-CT of femurs; assay type: in vivo, C57BL/6 female mice; conditions: for entire bone density in micro-CT images: compared to PBS
Protocol: Also, a total 6 female mice (three mice in each group), 12 weeks old, were subjected to an ovariotomy to establish an osteoporosis model. After a week, 50 μg/kg of neuropeptide Y and 100 μl of PBS (Gibco) were abdominally administered twice a day to the female mice at an interval of 12 hours for 3 weeks. As the control, a total 6 female mice (three mice in each group) were subjected to […] to establish a Sham model for osteoporosis. In this case, 100 μl of PBS or 50 μg/kg of neuropeptide Y was abdominally administered. […] To measure a bone density (bone volume/total volume) and a trabecular thickness, volume fractions with 2.5×0.5×0.5 mm^3 in the same portions of the femurs in each group were measured using Siemens Inveon software. First, three C57BL/6 female mice in each group, 12 weeks old, were subjected to an ovariotomy to establish an osteoporosis model. After a week, 50 μg/kg of neuropeptide Y and 100 μl of PBS (Gibco) were abdominally administered twice a day to the female mice at an interval of 12 hours for 3 weeks. As the control, the normal mice which were subjected to subcutaneous incision alone and into which 100 μl of PBS and 50 μg/kg of neuropeptide Y were abdominally administered were used. On the 22nd day, the femurs of the mice were isolated, and refrigerated in 80% ethanol, and the bone density and the trabecular thickness were then measured using micro CT.

[6] = osteoporotic (OVX) mice, 50 μg/kg abdominally twice a day for 3 weeks, versus PBS, n=3

Molecule | bone formation (S1P receptor) | expression levels of Sdf-1a, Kit1, and Angpt1 in osteoblasts [1] | expression levels of the adhesion factors Sdf-1a, Kit1, Angpt1, and Vcam1 in bone marrow [2] | colony number of the bone-marrow hematopoietic progenitor cells released into the blood [3] | bone-marrow haematopoietic stem cells labeled with Lin−, Sca-1+, c-kit+, CD48−, and CD150+ in the bone marrow [4] | number of the haematopoietic stem cells (CD45.2+ cells) in the bone marrows of injected mice ([5]; compared to bone marrows of mice into which PBS was injected) | ratio of the CD45.2+ cells ([5]; donor bone marrow of injected mice mixed with Ly5.1 bone marrow, recipient blood 8 weeks after transplantation, compared to PBS) | entire bone density in micro-CT images (osteoporosis model; control (Sham) model, 50 μg/kg abdominally) | decrease in bone density and trabecular thickness of the osteoporotic mice (osteoporosis model; long-term administration in the osteoporosis model) | entire bone density in micro-CT images (osteoporosis model; osteoporotic (OVX) mice, 50 μg/kg abdominally twice a day for 3 weeks) | bone density (BV/TV, %) (osteoporosis model; [6]) | trabecular thickness (mm) (osteoporosis model; [6])
CCCCCCCCc1ccc(CCC(N)(CO)CO)cc1 [FTY720] | increases | – | – | – | – | – | – | – | – | – | – | –
CCCCCCCCCCCCC/C=C/[C@@H](O)[C@@H](N)COP(=O)(O)O [sphingosine-1-phosphate] | increases | – | – | – | – | – | – | – | – | – | – | –
neuropeptide Y | – | decreased in a ration-dependent manner | decreased; also recorded: generally reduced | largest colony number | decreased in the bone marrow | lower | reduced | higher entire bone density; also recorded: increased | inhibited | higher entire bone density; also recorded: remarkably increased | higher | higher

Reference: US20160243198A1, “Pharmaceutical Composition for Preventing or Treating Osteoporosis Which Comprises Neuropeptide Y as Active Ingredient” (KYUNGPOOK NATIONAL UNIVERSITY INDUSTRY-ACADEMIC COOPERATION …, priority 2013, published 2016)
